Assay results published in patent US12522583B2, “Benzimidazole derivatives and aza-benzimidazole derivatives as Janus kinase 2 inhibitors and uses thereof” (Dana-Farber Cancer Institute, Inc., priority 2018, dated 2026).

Legend:
Assay in all cases: KINOMEscan
Format in all cases: binding
Conditions in all cases: read-out: percent control
DMPK = DMPK (Homo sapiens (Human), UniProt Q09013)
Source text: (§1) Example 2. In Vitro Kinase Selectivity Profiling of the Compounds of the Present Disclosure

HUNK = HUNK (Homo sapiens (Human), UniProt P57058)
Source text: as §1

CAMK2B = CAMK2B (Homo sapiens (Human), UniProt Q13554)
Source text: as §1

TGFBR1 = TGFBR1 (Homo sapiens (Human), UniProt P36897)
Source text: as §1

EGFR(S752-I759del) = EGFR(S752-I759del) (Homo sapiens (Human), UniProt P00533, DEL752-759)
Source text: as §1

PIK3C2B = PIK3C2B (Homo sapiens (Human), UniProt O00750)
Source text: as §1

MARK1 = MARK1 (Homo sapiens (Human), UniProt Q9P0L2)
Source text: as §1

ERK8 = ERK8 (Homo sapiens (Human), UniProt Q8TD08)
Source text: as §1

FLT3(R834Q) = FLT3(R834Q) (Homo sapiens (Human), UniProt P36888, R834Q)
Source text: as §1

HIPK1 = HIPK1 (Homo sapiens (Human), UniProt Q86Z02)
Source text: as §1

[1] = molecular target: ABL1(M351T)-phosphorylated (Homo sapiens (Human), UniProt P00519, M351T)
Source text: as §1

MINK = MINK (Homo sapiens (Human), UniProt Q8N4C8)
Source text: as §1

LYN = LYN (Homo sapiens (Human), UniProt P07948)
Source text: as §1

RIPK2 = RIPK2 (Homo sapiens (Human), UniProt O43353)
Source text: as §1

FAK = FAK (Homo sapiens (Human), UniProt Q05397)
Source text: as §1

S6K1 = S6K1 (Homo sapiens (Human), UniProt P23443)
Source text: as §1

SGK2 = SGK2 (Homo sapiens (Human), UniProt Q9HBY8)
Source text: as §1

FLT3 = FLT3 (Homo sapiens (Human), UniProt P36888)
Source text: as §1

FLT3(D835H) = FLT3(D835H) (Homo sapiens (Human), UniProt P36888, D835H)
Source text: as §1

MAP3K2 = MAP3K2 (Homo sapiens (Human), UniProt Q9Y2U5)
Source text: as §1

PIK3CA = PIK3CA (Homo sapiens (Human), UniProt P42336)
Source text: as §1

MLK1 = MLK1 (Homo sapiens (Human), UniProt P80192)
Source text: as §1

[2] = molecular target: ABL1(Q252H)-phosphorylated (Homo sapiens (Human), UniProt P00519, Q252H)
Source text: as §1

PIM3 = PIM3 (Homo sapiens (Human), UniProt Q86V86)
Source text: as §1

FGFR1 = FGFR1 (Homo sapiens (Human), UniProt P11362)
Source text: as §1

GRK2 = GRK2 (Homo sapiens (Human), UniProt P25098)
Source text: as §1

CDKL5 = CDKL5 (Homo sapiens (Human), UniProt O76039)
Source text: as §1

SRPK2 = SRPK2 (Homo sapiens (Human), UniProt P78362)
Source text: as §1

EGFR(L858R) = EGFR(L858R) (Homo sapiens (Human), UniProt P00533, L858R)
Source text: as §1

PIK3CA(H1047Y) = PIK3CA(H1047Y) (Homo sapiens (Human), UniProt P42336, H1047Y)
Source text: as §1

CDK4-cyclinD1 = CDK4-cyclinD1 (Homo sapiens (Human), UniProt P11802)
Source text: as §1

[3] = molecular target: RPS6KA4(Kin.Dom.1-terminal) (Homo sapiens (Human), UniProt O75676)
Source text: as §1

STK16 = STK16 (Homo sapiens (Human), UniProt O75716)
Source text: as §1

ERK5 = ERK5 (Homo sapiens (Human), UniProt Q13164)
Source text: as §1

MST2 = MST2 (Homo sapiens (Human), UniProt Q13188)
Source text: as §1

[4] = molecular target: TYK2(JH1domain-catalytic) (Homo sapiens (Human), UniProt P29597)
Source text: as §1

[5] = molecular target: JAK1(JH2domain-pseudokinase) (Homo sapiens (Human), UniProt P23458)
Source text: as §1

FLT3(N841I) = FLT3(N841I) (Homo sapiens (Human), UniProt P36888, N841I)
Source text: as §1

AURKA = AURKA (Homo sapiens (Human), UniProt O14965)
Source text: as §1

Chain of ERK5 (Q13164 whole entry): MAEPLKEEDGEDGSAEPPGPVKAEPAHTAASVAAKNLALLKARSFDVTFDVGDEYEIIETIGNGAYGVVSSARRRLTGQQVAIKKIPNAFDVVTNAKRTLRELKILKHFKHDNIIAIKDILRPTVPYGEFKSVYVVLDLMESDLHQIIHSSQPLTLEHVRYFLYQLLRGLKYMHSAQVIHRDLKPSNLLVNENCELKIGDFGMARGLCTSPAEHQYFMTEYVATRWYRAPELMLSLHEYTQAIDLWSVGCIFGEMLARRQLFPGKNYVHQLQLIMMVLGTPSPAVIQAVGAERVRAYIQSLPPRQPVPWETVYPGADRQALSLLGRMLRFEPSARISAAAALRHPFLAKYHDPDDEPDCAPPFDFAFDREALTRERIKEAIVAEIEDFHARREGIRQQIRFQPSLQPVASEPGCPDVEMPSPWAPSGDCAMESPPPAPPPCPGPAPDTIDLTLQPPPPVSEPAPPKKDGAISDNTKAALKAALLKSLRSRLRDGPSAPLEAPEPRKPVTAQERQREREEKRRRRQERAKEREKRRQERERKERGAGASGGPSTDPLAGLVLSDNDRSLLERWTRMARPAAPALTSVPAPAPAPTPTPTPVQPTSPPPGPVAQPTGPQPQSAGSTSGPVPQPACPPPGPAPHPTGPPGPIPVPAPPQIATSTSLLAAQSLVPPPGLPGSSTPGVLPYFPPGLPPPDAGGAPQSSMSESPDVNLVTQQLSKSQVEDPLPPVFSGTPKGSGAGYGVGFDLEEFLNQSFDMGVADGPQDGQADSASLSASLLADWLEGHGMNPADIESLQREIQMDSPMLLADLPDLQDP
Chain of FGFR1 (P11362 22-822): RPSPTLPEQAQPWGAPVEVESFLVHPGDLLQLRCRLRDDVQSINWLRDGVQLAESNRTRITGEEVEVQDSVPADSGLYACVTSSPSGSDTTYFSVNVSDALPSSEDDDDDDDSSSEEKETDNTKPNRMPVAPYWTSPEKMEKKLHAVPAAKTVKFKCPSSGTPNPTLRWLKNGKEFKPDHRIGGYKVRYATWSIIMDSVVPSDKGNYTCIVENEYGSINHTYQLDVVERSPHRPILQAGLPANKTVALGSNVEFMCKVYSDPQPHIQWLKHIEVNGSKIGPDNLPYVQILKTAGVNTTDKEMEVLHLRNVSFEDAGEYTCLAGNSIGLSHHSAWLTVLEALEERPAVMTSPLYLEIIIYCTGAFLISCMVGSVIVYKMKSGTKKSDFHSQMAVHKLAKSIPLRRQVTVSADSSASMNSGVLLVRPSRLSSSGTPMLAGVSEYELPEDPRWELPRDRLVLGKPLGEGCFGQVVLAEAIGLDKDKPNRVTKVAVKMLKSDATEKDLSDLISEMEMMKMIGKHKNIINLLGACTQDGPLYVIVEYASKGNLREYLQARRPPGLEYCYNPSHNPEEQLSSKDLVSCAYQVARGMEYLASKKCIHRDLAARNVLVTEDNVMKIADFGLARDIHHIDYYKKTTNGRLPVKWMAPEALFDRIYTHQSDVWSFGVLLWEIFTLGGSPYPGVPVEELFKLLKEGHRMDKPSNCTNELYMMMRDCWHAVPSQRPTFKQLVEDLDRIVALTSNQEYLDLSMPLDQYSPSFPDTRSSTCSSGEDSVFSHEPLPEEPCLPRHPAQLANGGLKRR
Chain of AURKA (O14965 whole entry): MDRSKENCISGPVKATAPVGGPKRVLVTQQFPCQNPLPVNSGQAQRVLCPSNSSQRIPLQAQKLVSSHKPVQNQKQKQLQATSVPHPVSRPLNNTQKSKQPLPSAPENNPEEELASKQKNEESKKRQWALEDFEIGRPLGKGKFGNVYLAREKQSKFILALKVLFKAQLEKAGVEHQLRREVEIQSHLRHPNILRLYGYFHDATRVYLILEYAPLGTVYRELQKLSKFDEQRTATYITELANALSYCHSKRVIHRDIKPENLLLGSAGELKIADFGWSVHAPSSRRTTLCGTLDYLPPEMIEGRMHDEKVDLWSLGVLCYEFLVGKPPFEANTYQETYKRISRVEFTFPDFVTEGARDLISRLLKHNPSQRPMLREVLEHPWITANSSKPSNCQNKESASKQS
Chain of RIPK2 (O43353 whole entry): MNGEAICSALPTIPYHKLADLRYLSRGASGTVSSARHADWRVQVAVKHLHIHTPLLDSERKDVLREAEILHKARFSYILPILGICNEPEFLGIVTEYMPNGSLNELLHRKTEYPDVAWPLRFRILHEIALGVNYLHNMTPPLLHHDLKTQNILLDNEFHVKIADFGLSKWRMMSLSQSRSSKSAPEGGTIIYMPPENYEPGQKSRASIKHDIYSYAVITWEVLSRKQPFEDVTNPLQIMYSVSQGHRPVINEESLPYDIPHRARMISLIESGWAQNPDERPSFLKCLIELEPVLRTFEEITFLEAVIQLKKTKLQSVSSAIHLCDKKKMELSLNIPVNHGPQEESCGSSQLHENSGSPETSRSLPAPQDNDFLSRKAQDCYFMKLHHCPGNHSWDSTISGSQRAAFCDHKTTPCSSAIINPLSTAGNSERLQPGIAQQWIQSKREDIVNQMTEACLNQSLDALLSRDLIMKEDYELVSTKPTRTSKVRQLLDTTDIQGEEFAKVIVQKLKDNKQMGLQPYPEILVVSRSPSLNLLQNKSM
Chain of JAK1(JH2domain-pseudokinase) (P23458 583-855 limits assumed): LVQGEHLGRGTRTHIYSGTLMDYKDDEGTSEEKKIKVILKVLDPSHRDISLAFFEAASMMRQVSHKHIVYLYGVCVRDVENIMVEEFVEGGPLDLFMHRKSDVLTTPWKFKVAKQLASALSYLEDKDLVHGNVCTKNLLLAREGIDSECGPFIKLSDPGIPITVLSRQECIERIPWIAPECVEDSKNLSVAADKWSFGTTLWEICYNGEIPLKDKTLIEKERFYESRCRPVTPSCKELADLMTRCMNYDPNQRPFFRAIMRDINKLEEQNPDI
Chain of TGFBR1 (P36897 34-503): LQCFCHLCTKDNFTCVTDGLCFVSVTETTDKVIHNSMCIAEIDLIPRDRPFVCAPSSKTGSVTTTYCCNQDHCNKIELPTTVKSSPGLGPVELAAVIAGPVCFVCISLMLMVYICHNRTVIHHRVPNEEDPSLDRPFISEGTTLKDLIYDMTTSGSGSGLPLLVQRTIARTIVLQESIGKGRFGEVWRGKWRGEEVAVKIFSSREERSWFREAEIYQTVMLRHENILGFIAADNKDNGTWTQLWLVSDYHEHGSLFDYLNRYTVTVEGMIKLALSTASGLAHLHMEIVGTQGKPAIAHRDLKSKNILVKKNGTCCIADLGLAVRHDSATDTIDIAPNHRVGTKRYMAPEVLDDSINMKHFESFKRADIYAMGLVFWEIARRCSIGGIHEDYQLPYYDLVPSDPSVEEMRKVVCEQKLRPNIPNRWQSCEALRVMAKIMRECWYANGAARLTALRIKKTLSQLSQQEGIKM
Chain of MLK1 (P80192 whole entry): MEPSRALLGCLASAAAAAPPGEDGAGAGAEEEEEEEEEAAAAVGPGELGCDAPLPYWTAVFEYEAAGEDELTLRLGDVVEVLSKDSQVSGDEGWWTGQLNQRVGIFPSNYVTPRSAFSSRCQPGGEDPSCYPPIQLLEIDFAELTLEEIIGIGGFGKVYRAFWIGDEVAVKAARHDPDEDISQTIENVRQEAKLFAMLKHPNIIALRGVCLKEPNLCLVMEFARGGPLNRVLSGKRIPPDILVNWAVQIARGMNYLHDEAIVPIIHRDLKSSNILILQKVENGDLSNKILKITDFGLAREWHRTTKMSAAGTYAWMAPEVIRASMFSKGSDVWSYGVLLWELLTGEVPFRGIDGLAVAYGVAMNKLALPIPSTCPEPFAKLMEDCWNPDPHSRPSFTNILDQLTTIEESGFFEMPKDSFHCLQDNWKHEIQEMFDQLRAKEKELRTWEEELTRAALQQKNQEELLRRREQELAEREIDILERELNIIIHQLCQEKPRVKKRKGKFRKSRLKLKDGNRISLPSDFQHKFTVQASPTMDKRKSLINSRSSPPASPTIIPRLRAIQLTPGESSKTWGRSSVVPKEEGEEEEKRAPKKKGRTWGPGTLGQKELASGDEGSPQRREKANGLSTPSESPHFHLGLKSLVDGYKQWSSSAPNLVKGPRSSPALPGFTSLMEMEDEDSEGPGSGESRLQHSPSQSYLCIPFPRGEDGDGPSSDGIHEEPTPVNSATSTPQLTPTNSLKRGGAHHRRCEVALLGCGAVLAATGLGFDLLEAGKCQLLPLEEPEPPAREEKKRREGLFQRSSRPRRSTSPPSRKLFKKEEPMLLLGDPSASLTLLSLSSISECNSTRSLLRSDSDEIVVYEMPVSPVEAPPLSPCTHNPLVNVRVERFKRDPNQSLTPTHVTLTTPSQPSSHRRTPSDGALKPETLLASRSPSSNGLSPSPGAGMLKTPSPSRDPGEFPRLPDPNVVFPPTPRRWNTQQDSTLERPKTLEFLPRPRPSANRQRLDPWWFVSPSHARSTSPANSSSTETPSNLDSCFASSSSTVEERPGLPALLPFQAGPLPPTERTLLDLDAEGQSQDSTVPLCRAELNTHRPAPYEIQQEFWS
Chain of MST2 (Q13188 whole entry): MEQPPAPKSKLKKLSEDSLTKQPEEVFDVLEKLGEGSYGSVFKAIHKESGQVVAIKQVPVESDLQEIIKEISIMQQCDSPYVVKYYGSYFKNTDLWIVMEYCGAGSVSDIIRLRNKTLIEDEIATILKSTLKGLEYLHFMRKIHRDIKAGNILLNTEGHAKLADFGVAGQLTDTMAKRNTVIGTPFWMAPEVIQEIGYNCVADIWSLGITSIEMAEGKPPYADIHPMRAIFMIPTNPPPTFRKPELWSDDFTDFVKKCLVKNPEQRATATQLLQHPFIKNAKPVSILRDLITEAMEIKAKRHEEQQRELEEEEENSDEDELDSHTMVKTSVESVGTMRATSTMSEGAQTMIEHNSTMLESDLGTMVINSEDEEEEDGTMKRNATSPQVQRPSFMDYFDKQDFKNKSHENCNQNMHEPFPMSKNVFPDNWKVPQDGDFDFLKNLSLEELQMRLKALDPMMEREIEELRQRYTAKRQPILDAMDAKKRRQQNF

SMILES	remaining binding at 1 µM (DMPK) [%]	remaining binding at 1 µM (HUNK) [%]	remaining binding at 1 µM (CAMK2B) [%]	remaining binding at 1 µM (TGFBR1) [%]	remaining binding at 1 µM (EGFR(S752-I759del)) [%]	remaining binding at 1 µM (PIK3C2B) [%]	remaining binding at 1 µM (MARK1) [%]	remaining binding at 1 µM (ERK8) [%]	remaining binding at 1 µM (FLT3(R834Q)) [%]	remaining binding at 1 µM (HIPK1) [%]	remaining binding at 1 µM [1] [%]	remaining binding at 1 µM (MINK) [%]	remaining binding at 1 µM (LYN) [%]	remaining binding at 1 µM (RIPK2) [%]	remaining binding at 1 µM (FAK) [%]	remaining binding at 1 µM (S6K1) [%]	remaining binding at 1 µM (SGK2) [%]	remaining binding at 1 µM (FLT3) [%]	remaining binding at 1 µM (FLT3(D835H)) [%]	remaining binding at 1 µM (MAP3K2) [%]	also measured
CCN1CCN(Cc2ccc(Nc3nc4ccc(Oc5ccnc(NC(C)=O)c5)cc4n3C)cc2C(F)(F)F)CC1 [Compound I-2]	94	65	92	100	100	85	98	79	100	56	37	92	44	94	98	82	89	15	47	21	remaining binding at 1 µM (PIK3CA): 90%; remaining binding at 1 µM (MLK1): 100%; remaining binding at 1 µM [2]: 36%; remaining binding at 1 µM (PIM3): 93%; remaining binding at 1 µM (FGFR1): 86%; remaining binding at 1 µM (GRK2): 100%; remaining binding at 1 µM (CDKL5): 96%; remaining binding at 1 µM (SRPK2): 92%; remaining binding at 1 µM (EGFR(L858R)): 83%; remaining binding at 1 µM (PIK3CA(H1047Y)): 62%; remaining binding at 1 µM (CDK4-cyclinD1): 85%; remaining binding at 1 µM [3]: 100%; remaining binding at 1 µM (STK16): 59%; remaining binding at 1 µM (ERK5): 89%; remaining binding at 1 µM (MST2): 81%; remaining binding at 1 µM [4]: 23%; remaining binding at 1 µM [5]: 97%; remaining binding at 1 µM (FLT3(N841I)): 11%; remaining binding at 1 µM (AURKA): 69%
CCN1CCN(Cc2ccc(Nc3nc4ccc(Oc5ccnc(NC(C)=O)c5)c(C)c4n3C)cc2C(F)(F)F)CC1 [Compound I-6, N-(4-(2-(4-((4-ethylpiperazin-1-yl)methyl)-3-(trifluoromethyl)phenylamino)-1,7-dimethyl-1H-benzo[d]imidazol-6-yloxy)pyridin-2-yl)acetamide]	100	91	94	95	94	97	92	75	57	81	27	59	12	82	94	84	85	1	24	0.6	remaining binding at 1 µM (PIK3CA): 91%; remaining binding at 1 µM (MLK1): 100%; remaining binding at 1 µM [2]: 24%; remaining binding at 1 µM (PIM3): 86%; remaining binding at 1 µM (FGFR1): 75%; remaining binding at 1 µM (GRK2): 91%; remaining binding at 1 µM (CDKL5): 92%; remaining binding at 1 µM (SRPK2): 75%; remaining binding at 1 µM (EGFR(L858R)): 97%; remaining binding at 1 µM (PIK3CA(H1047Y)): 86%; remaining binding at 1 µM (CDK4-cyclinD1): 83%; remaining binding at 1 µM [3]: 93%; remaining binding at 1 µM (STK16): 82%; remaining binding at 1 µM (ERK5): 88%; remaining binding at 1 µM (MST2): 58%; remaining binding at 1 µM [4]: 36%; remaining binding at 1 µM [5]: 82%; remaining binding at 1 µM (FLT3(N841I)): 14%; remaining binding at 1 µM (AURKA): 98%
